What was measured:
[1] = tested on: HL-60 myeloid leukemia cell line; settings: in P123 Pluronic micelles; for cell growth inhibition compared with vehicle: HL-60, up to 0.24 μM, 3 days
Method: The in vitro anti-leukemic activity of both chelates using the HL-60 myeloid leukemia cell line was compared. […] The DETC/metal chelates were initially dissolved in dimethylsulfoxide (DMSO). This 2 mM DETC/metal stock in DMSO was then mixed with a polymer stock and micellization was allowed to occur at room temperature. The final polymer concentration was 2% by weight. […] DETC/metal chelates were added at concentrations of up to 0.24 μM. Cell growth was assessed after 3 days using the MTS assay.

HL-60 cells [2] = assay: Leukemia cell growth in vivo, HL-60 flank tumors in mice; design: species or system NOD/SCID IL2Rγ^null mice
Excerpt: In another preliminary experiment, the effect of DETC/metal chelates on leukemia cell growth in vivo was studied. NOD/SCID IL2Rγ^null mice were implanted bilaterally in the flanks with 19×10^6 HL-60 cells. […] The experiment was terminated on day 15. At that point 3 out of 4 control animals had died and the one remaining alive had tumor volumes that had exceeded 10% of initial body weight. None of the animals treated with DETC/Cu died.

HL-60 cells [3] = settings: HL-60, 0.32 μM, 24 hours, average and SEM of 3 experiments; controls 7±1%
Method: HL-60 cells were treated with DETC/Cu^2+ at a concentration of 0.32 μM for 24 hours upon which the number of apoptotic cells was determined using propidium iodide (PI) staining and flow cytometry. Analysis for the presence of apoptotic cells was modeled using the ModFit software.

[4] = tested on: colon cancer cell line DLD-1; settings: read-out: 50% growth inhibitory concentration (IC50); DLD-1, two days, in P123 micelles
Method: (§1) The effect of DETC/Cu^2+ chelates on the growth of 3 solid tumor cell lines in vitro was studied. The cell lines studied were the colon cancer cell line DLD-1, the prostate cancer cell line PPC-1 and the hepatoma cell line Hep-3B. […] Cells in logarithmic growth phase were cultured in RPMI1640/10% FBS media at a concentration of 120,000 cells/mL. DETC/Cu^2+ was added to the cells at concentrations ranging from 0 to 1 μM. […] Two days after drug addition, cell growth was assayed using the CellTiter 96 assay from Promega (Madison, Wis.) using the manufacturer's protocol.

[5] = tested on: prostate cancer cell line PPC-1; settings: read-out: 50% growth inhibitory concentration (IC50); PPC-1, two days, in P123 micelles
Method: as §1

[6] = tested on: hepatoma cell line Hep-3B; settings: read-out: 50% growth inhibitory concentration (IC50), two days, in P123 micelles
Method: as §1

Compound	cell growth inhibition compared with vehicle [1]	toxicity (HL-60 cells [2]; 2 μmol/kg intravenously every other day, in P123 micelles)	tumor volume, tumor growth (HL-60 cells [2]; after 12 days of therapy, 2 μmol/kg i.v. every other day, versus P123 micelle controls)	animals that died (HL-60 cells [2]; day 15, 4 mice per group, 3 out of 4 controls died)	relative potency of growth inhibition ([1]; HL-60, 3 days)	apoptotic cells (HL-60 cells [3])	IC50 [4]	IC50 [5]	IC50 [6]
CCN(CC)C(=S)[S-].[Ag+] [DETC/Ag^+, silver salt of diethyldithiocarbamate]	growth inhibition to a much greater extent	–	–	–	–	–	–	–	–
CCN(CC)C(=S)[S-].CCN(CC)C(=S)[S-].[Cu+2] [DETC/Cu^2+, copper salt of diethyldithiocarbamate]	growth inhibition to a much greater extent	No obvious toxicity	delay in tumor growth	None	more potent than the DETC/Ag^+ chelate	16±2%	370 nM	180 nM	130 nM

From patent US20110206756A1, “DITHI[…] CHELATES AND METHODS OF MAKING AND USING THEREOF” (UNIVERSITY OF UTAH RESEARCH FOUNDATION, priority 2008, published 2011)
